Experimental data from US8211919B2, “Amide derivatives as rock inhibitors” (Astellas Pharma Inc., priority 2005, dated 2012).
Counter-ions that a name gives are not always drawn.

Experiments:
human ROCK I = biological target: T1, human ROCK I (Homo sapiens, UniProt Q13464); test: ROCK enzyme inhibition assay; type: biochemical
T1 construct: purchased Caruna Biosciences (sic)
Protocol: ROCK enzyme inhibitory activity of the compounds of the present invention has been assayed as follow. A aqueous solution of Rho kinase substrate MYTP was added to 96-well plate. Following incubation for overnight at 4° C., the plate was blocked by using blocking buffer containing BSA. To the plate was added reaction buffer containing each concentration of compound, suitable concentration of human ROCK I (Caruna Biosciences), ATP, β-glycerol phosphate, EGTA, sodium orthovanadate and DTT, and then the plate was incubated for 1 hour. After washing the plate by washing buffer, anti-phosphothreonin antibody was added to the plate, and then the plate was incubated for 1 hour. After washing the plate by washing buffer again, HRP-conjugated anti-phosphorylated protein antibody was added to the plate, and then the plate was incubated for 1 hour. After washing the plate by washing buffer again, calorimetric substrate TMB microwell peroxidase substrate was added to the plate, and then the plate was incubated for appropriate time. After incubation, H2SO4 was added to the plate to stop the reaction, and then absorbance (450 nm) was measured by using spectromether. Based on the absorbance for each compound, the data is fit using Prism software to obtain a IC50 value.

Male Wistar rats [1] = test: Effects on hindlimb blood flow (laser Doppler); type: in vivo, rat; conditions: 10 mg/kg p.o.
From the text: As one of the study to clarify the usefulness of the compounds of the present invention for peripheral arterial disease, we conducted a study to evaluate the effects of the compounds on hindlimb blood flow in rats.
Male Wistar rats were anesthetized by intraperitoneal pentobarbital injection (Kanto chemical, Japan) after oral administration of compounds. Rats were placed on a heating plate for subsequent hindlimb blood flow analysis. We measured hindlimb blood flow using a laser Doppler blood flow meter (PeriScan System, Stockholm, Sweden). After the laser Doppler images were recorded, the average perfusion values of both limbs were calculated, and evaluated the effects of compounds on hindlimb blood flow. Each experiment was performed in about 4 animals.

[2] = system: Male SD rats, intra-articular MIA in right knee; test: Changes in hindlimb weight distribution, monosodium iodoacetate (MIA) osteoarthritis model; type: in vivo; conditions: Rattus norvegicus, 504 h; oral administration; three weeks after MIA injection; incapacitance tester
From the text: As intra-articular injection of monosodium iodoacetate (MIA) induced human osteoarthritis-like histopathological changes in knee joint, this model would be very useful for the study of human osteoarthritis. Recently, it is reported the clinical scores of the joint pain were closely correrated to the grade of histological findings (J Vet Med Sci 65, 1195, 2003) and this model may be useful for estimation of therapeutic effects of pain with osteoarthritis.
Male SD rats were anesthetized with halothane (Takeda, Japan) and given single intra-articular injection of 1 mg of monosodium iodoacetate (MIA; Sigma, St. Louis, USA) through the infrapatellar ligament of the right knee. MIA was dissolved with physiologic saline and administered in a volume of 50 ul using a 27-gauge, 0.5-inch needle. Three weeks after the injection, hindlimb weight distribution was determined using an incapacitance tester (Linton Instrumentation, Norfork, UK). Rats were allowed to acclimate to the testing apparatus and when stationary, readings were taken over a 5 s period. […] Each group in each experiment were performed in about 8 animals.

Male Wistar rats [3] = test: Inhibitory effects on phenylephrine-induced elevation of urethral pressure; type: in vivo, rat; conditions: i.v.; phenylephrine 30 ug/kg i.v.
From the text: To evaluate the usefulness of the compounds of the present invention for urinary dysfunction associated with benign prostatic hyperplasia, we investigated the inhibitory effects of the intravenous administration of the compounds on phenylephrine-induced elevation of the urethral pressure in rats.
Male Wistar rats were anesthetized with urethane (SIGMA, USA). After midline abdominal incision, catheter to measure the urethral pressure (3.5 Fr, Millar, USA) was inserted into the urethra from top of the bladder. After confirming the Phenylephrine (30 ug/kg i.v.)-induced elevation of the urethral pressure, compounds were administered intravenously in increasing doses. Every 5 min after administration of compounds, Phenylephrine (30 ug/kg i.v.) was injected, and the inhibitory effects of compounds on phenylephrine-induced elevation of urethral pressure were evaluated. Each experiment was performed in about 4 animals.

[4] = system: Female SD rats, bradykinin injected into knee joint cavity; test: Pain alleviation effect on bradykinin induced joint pain model; type: in vivo, rat
Protocol: Bradykinin is known to be one of the important pain-related mediators in various pain and especially, sodium hyaluronate which is useful for pain in osteoarthritis is reported to be effective in bradykinin-induced joint pain model. Therefore, we examined effects of compounds in the model.
The making of the joint pain model and evaluation of a level of pain was conducted essentially based on the method described in Folia pharmacol. japon., 92, 17-27 (1988). Female SD rats (6-7 weeks old, Charles River Japan, Inc.) were anesthetized with halothane (Wako). Compound of the above Example were administrated orally to the rat by using oral sonde for rat. 60 min after administration of the compound, saline solution of bradykinin was injected into knee joint cavity of hind limb of rat (3 uM/site/50 ul), and then the response to pain of the rat after administration of bradykinin was observed. Level of pain was scored as five grade point (0-4) as follow: 0: no lameness to lameness for 10 seconds; 1: lameness for 10 to 30 seconds; 2: lift of the limb within 10 seconds or lameness for 31 or more seconds; 3: three-legged gait within 10 seconds followed by lameness; 4: three-legged gait for 10 or more seconds followed by lameness. About 10 rat models were used in each experimental group. It was confirmed that administration of bradykinin leads to response to pain scored as about 3.

T1 sequence (Q13464 whole entry): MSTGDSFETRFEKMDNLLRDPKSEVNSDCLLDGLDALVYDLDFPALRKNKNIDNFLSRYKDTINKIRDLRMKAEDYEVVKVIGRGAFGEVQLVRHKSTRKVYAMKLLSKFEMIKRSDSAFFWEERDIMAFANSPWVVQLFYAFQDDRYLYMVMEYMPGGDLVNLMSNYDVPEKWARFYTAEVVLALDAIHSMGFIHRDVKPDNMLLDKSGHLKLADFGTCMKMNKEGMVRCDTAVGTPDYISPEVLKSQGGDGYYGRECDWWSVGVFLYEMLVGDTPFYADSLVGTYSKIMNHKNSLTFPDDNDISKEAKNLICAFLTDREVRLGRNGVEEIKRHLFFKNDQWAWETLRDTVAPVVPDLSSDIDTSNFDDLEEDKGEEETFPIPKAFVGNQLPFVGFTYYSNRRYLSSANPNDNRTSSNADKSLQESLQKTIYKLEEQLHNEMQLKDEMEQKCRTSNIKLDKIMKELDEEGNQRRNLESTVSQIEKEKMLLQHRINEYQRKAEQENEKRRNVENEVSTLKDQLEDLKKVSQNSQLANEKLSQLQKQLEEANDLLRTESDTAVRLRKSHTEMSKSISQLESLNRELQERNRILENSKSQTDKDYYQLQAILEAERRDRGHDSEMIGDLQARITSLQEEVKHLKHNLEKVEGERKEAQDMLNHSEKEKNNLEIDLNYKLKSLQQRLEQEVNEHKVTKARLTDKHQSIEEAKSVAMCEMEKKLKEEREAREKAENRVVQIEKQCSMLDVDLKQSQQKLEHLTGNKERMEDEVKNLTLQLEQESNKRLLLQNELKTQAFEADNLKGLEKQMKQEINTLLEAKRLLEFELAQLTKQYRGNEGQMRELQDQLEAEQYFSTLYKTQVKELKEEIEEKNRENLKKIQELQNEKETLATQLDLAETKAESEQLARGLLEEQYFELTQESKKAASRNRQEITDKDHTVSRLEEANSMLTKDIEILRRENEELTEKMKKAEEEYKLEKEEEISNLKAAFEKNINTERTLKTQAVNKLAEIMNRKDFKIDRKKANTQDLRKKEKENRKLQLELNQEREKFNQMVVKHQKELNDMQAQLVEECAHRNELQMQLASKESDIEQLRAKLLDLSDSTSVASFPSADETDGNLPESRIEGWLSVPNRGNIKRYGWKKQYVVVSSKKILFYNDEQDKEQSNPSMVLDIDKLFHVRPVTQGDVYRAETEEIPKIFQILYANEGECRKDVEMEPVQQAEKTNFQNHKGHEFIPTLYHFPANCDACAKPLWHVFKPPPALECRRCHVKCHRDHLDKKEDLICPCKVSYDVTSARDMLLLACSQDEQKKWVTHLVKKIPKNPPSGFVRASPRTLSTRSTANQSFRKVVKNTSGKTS

Nc1nccc(-c2ccc(NC(=O)[C@H](N)c3cccs3)cc2)n1 [Example 155, (2S)-2-amino-N-[4-(2-aminopyrimidin-4-yl)phenyl]-2-(2-thienyl)acetamide]
IC50 (human ROCK I): 0.072 µM

N[C@H](Cc1cccc(F)c1)C(=O)Nc1ccc(-c2ccncc2)cc1 [Example 86, 3-fluoro-N-[4-(4-pyridinyl)phenyl]-D-phenylalaninamide]
IC50 (human ROCK I): 0.005 µM | % of increase of blood flow (Male Wistar rats [1]): >130%

N[C@@H](Cc1ccccc1)C(=O)Nc1ccc(-c2ccncc2)cc1 [Example 53, (2S)-2-amino-3-phenyl-N-[4-(4-pyridinyl)phenyl]propanamide dihydrochloride]
IC50 (human ROCK I): 0.018 µM

N[C@H](Cc1ccccc1)C(=O)Nc1ccc(-c2ccncc2)cc1 [Example 54, (2R)-2-amino-3-phenyl-N-[4-(4-pyridinyl)phenyl]propanamide]
IC50 (human ROCK I): 0.01 µM | % of increase of blood flow (Male Wistar rats [1]): >130% | ED50 [2]: < 3 mg/kg

N[C@@H](Cc1ccccc1)C(=O)N1CCc2cc(-c3ccncc3)ccc21 [Example 58, (2S)-1-oxo-3-phenyl-1-[5-(4-pyridinyl)-2,3-dihydro-1H-indol-1-yl]-2-propanamine]
IC50 (human ROCK I): 0.053 µM | ED50 [2]: < 3 mg/kg

Nc1nccc(-c2ccc(NC(=O)[C@H](N)c3ccccc3)cc2)n1 [Example 154, (2R)-2-amino-N-[4-(2-aminopyrimidin-4-yl)phenyl]-2-phenylacetamide]
Inhibition of elevation in urethral pressure ED30 (Male Wistar rats [3]): <1 mg/kg | IC50 (human ROCK I): 0.042 µM | % of increase of blood flow (Male Wistar rats [1]): >130% | ED50 [2]: < 3 mg/kg

O=C(Nc1ccc(-c2ccncc2)cc1)N[C@H](CO)c1ccccc1C(F)(F)F [Example 72, 1-{(1S)-2-hydroxy-1-[2-(trifluoromethyl)phenyl]ethyl}-3-[4-(4-pyridinyl)phenyl]urea]
IC50 (human ROCK I): 0.025 µM

N[C@H](C(=O)Nc1ccc(-c2ccncc2)cc1)c1ccccc1 [Example 109, (2S)-2-amino-2-phenyl-N-[4-(4-pyridinyl)phenyl]acetamide]
Inhibition of elevation in urethral pressure ED30 (Male Wistar rats [3]): <1 mg/kg | IC50 (human ROCK I): 0.012 µM

O=C(Nc1ccc(-c2ccncc2)cc1)N[C@@H](CO)Cc1ccccc1 [Example 73, 1-[(1R)-1-benzyl-2-hydroxyethyl]-3-[4-(4-pyridinyl)phenyl]urea]
IC50 (human ROCK I): 0.084 µM

Cl.O=C(CNc1ccccc1)Nc1ccc(-c2ccncc2)cc1 [Example 26, 2-anilino-N-[4-(4-pyridinyl)phenyl]acetamide hydrochloride]
pain score ([4]; 32 mg/kg orally, 60 min before bradykinin, grade 0-4, vehicle 2.7): 1.4 | bradykinin-induced pain responses ([4]; oral administration, dose dependence): dose dependently improved | IC50 (human ROCK I): 0.077 µM

CN[C@H](Cc1ccccc1)C(=O)Nc1ccc(-c2ccncc2)cc1 [Example 98, N-alpha-methyl-N-[4-(4-pyridinyl)phenyl]-D-phenylalaninamide]
IC50 (human ROCK I): 0.021 µM | % of increase of blood flow (Male Wistar rats [1]): >130% | ED50 [2]: < 3 mg/kg

C[C@@H](NC(=O)Nc1ccc(-c2ccncc2)cc1)c1ccccc1 [Example 3, 1-[(1R)-1-phenylethyl]-3-[4-(4-pyridinyl)phenyl]urea]
IC50 (human ROCK I): 0.24 µM

N[C@@H](C(=O)Nc1ccc(-c2ccncc2)cc1)c1ccccc1 [Example 108, (2R)-2-amino-2-phenyl-N-[4-(4-pyridinyl)phenyl]acetamide]
IC50 (human ROCK I): 0.014 µM | % of increase of blood flow (Male Wistar rats [1]): >130% | ED50 [2]: < 3 mg/kg

O=C(Nc1ccc(-c2ccncc2)cc1)C(c1ccccc1)N1CCOCC1 (centres unmarked) [Example 119, 2-morpholin-4-yl-2-phenyl-N-[4-(4-pyridinyl)phenyl]acetamide]
IC50 (human ROCK I): 0.212 µM | ED50 [2]: < 3 mg/kg

Nc1nccc(-c2ccc3c(c2)CCN3C(=O)[C@@H](N)Cc2ccccc2)n1 [Example 151, 4-{1-[(2S)-2-amino-3-phenylpropanoyl]-2,3-dihydro-1H-indol-5-yl}pyrimidin-2-amine]
Inhibition of elevation in urethral pressure ED30 (Male Wistar rats [3]): <1 mg/kg | IC50 (human ROCK I): 0.086 µM

O=C(Nc1ccc(-c2ccncc2)cc1)N[C@H](CO)c1ccccc1 [Example 4, 1-[(1S)-2-hydroxy-1-phenylethyl]-3-[4-(4-pyridinyl)phenyl]urea]
IC50 (human ROCK I): 0.122 µM | % of increase of blood flow (Male Wistar rats [1]): >130% | ED50 [2]: < 3 mg/kg

O=C(NCc1ccccc1)Nc1ccc(-c2ccncc2)cc1 [Example 1, 1-benzyl-3-[4-(4-pyridinyl)phenyl]urea]
IC50 (human ROCK I): 0.342 µM

O=C(Nc1ccc(-c2ccncc2)cc1)N[C@H](CO)c1cccs1 [Example 67, 1-[(1R)-2-hydroxy-1-(2-thienyl)ethyl]-3-[4-(4-pyridinyl)phenyl]urea]
IC50 (human ROCK I): 0.112 µM | % of increase of blood flow (Male Wistar rats [1]): >130% | ED50 [2]: < 3 mg/kg
